Test results taken from US9457052B2, “Allograft tolerance induction” (The United States of America as Represented by the …, priority 2013, dated 2016).

Test system: C57BL/6 responder splenocytes with irradiated BALB/c stimulatory cells
Experiment: Allo-MLR lymphocyte proliferation assay (3H-thymidine) with AMPs
Type: cell-based, mouse
Details: 20 μM indomethacin alone
Procedure: FIG. 2. […] (A) Naive C57BL/6 splenocytes (as responders cells) were cultured 1:1 with irradiated (3 Gy) naïve BALB/c stimulatory cells. […] Cell proliferation was analyzed by 3H-thymidine incorporation during the last 18 h of a 5 day culture. Results are expressed as the mean percent alloproliferation inhibition of quadruplicate cultures. Data are representative of two independent experiments. (B) Cytokine analysis of 48 h culture supernatants obtained from mixed lymphocyte reaction assays. Data are presented as means±SD (n=3; P<0.05). (C) Representative flow cytometric analysis of splenic Tregs following 5 days of alto-MLR culture in the absence and presence of AMP co-culture. […] Quadrants are set according to isotype controls. Results shown are representative of three separate experiments. FIG. 3. […] Results are expressed as the mean value±SD. […] Bars indicate mean fold increase±SD mRNA expression level of the indicated gene relative the housekeeping gene GAPDH and normalized to untreated AMP cutlures. (D) Supernatants from allo-MLR/AMP co-cultures inhibit MLR lymphocyte proliferation. […] Cell proliferation was analyzed by ^3H-thymidine incorporation during the last 18 h of a 5 day culture. Results are expressed as the mean percent alloproliferation inhibition of quadruplicate cultures. […]

With COc1ccc2c(c1)c(CC(=O)O)c(C)n2C(=O)c1ccc(Cl)cc1 [indomethacin] the “allo T-cell proliferation” value was “significantly inhibit”.
